In patent publication US20130109049A1, “Method of Establishing a Fungal Nail Infection” (NOVABIOTICS LIMITED, priority 2009, published 2013):

What was measured:
[1] = system: clinical isolates T. rubrum DM 2006 1661, T. rubrum DM 2006 1358, T. mentagrophytes DM 2006 1503, T. mentagrophytes DM 2006 1498; experiment: Ex vivo human nail fragment model, treatment, clinical isolates of Trichophyton spp.; type: cell-based; details: Experiment 3
Excerpt: (§1) Trichophyton rubrum strain NCPF0118 was obtained from the National Collection of Pathogenic Fungi, Bristol, UK. Clinical isolates of T. rubrum DM2006 1661, T. rubrum DM2006 1358, T. mentagrophytes DM2006 1503, T. mentagrophytes DM2006 1498 were isolated from patients suffering a range of tinea infections and were purchased from Professor Michel Monod (Service de Dermatologie, Université de Lausanne, Switzerland). Clinical isolates of Candida samples were also obtained from patients suffering from Candidal infection.
The experiment was performed as described in Experiment 1 with modifications relating to the vehicle, concentrations and fungal strains used. […]
At the end of the treatment period, the nail fragments were placed in sterile 2 ml microcentrifuge tubes containing 450 μl of a suspension broth consisting of Sabouraud's Liquid Medium, pH 5.6, containing approximately 100 mg of sterile zirconia beads (0.5 mm diameter). […] Colonies were counted on dishes that contained between 20 and 200 colonies in total, and the total number of cfu present in each sample was calculated. […] The counts were corrected for the surface area of the nails studied to give cfu/cm^2, transformed to log10 and means and standard errors of the mean were calculated using GraphPad Prism 4 (GraphPad, San Diego, Calif.). […]

Candida = experiment: Ex vivo human nail fragment model, treatment of Candida infection; type: cell-based; details: Experiments 6 and 7; 10% (w/v); 14 d or 28 d, daily
Excerpt: as §1
The procedure was carried out as described for Example 1 above with modifications to the vehicle, and fungal strains used. Each nail was inoculated with 10 μl of a spore suspension of Candida. Following inoculation the nails were treated with 10% (w/v) Novexatin® (NP213) in a vehicle solution of 50% (w/v) PEG 8000 plus 20% (w/v) urea; 10% (w/v) NP339 in a vehicle solution of 50% (w/v) PEG 8000 plus 20% (w/v) urea; 10% (w/v) NP339 in a vehicle solution of water; a control solution of 50% (w/v) PEG 8000 plus 20% (w/v) urea; a control solution of water; a solution of 16 μg/ml Itraconazole® and 1.6% (w/v) DMSO in a vehicle solution of water and a control solution of 1.6% (w/v) DMSO. As for Experiment 1 above, nail fragments were treated daily for up to 28 days. […]
At the end of the treatment period, the nail fragments were placed in sterile 2 ml microcentrifuge tubes containing 450 μl of a suspension broth consisting of Sabouraud's Liquid Medium, pH 5.6, containing approximately 100 mg of sterile zirconia beads (0.5 mm diameter). […] Colonies were counted on dishes that contained between 20 and 200 colonies in total, and the total number of cfu present in each sample was calculated. […] The counts were corrected for the surface area of the nails studied to give cfu/cm^2, transformed to log10 and means and standard errors of the mean were calculated using GraphPad Prism 4 (GraphPad, San Diego, Calif.). […] When very low numbers of colonies were detected, as in Experiment 3, the calculated cfu values are shown in order to indicate trends.

[2] = system: T. interdigitale NCPF0335; experiment: Ex vivo human nail fragment model, prevention of infection; type: cell-based, Trichophyton interdigitale; details: Experiment 8
Excerpt: Six nail fragments were obtained. Three were assigned to each of two different infection prevention protocols, involving daily application of 2 different vehicle solutions, each containing a control and 3 different concentrations of Novexatin® (NP213). These vehicle solutions were: 50% (w/v) PEG 8000, and 50% (w/v) PEG 8000 plus 20% (w/v) urea. The concentrations of Novexatin® (NP213) studied were 0% (control), 1% (Novexatin® 1), 5% (Novexatin® 2) and 10% (Novexatin® 3) (w/v). The solutions were applied at a volume of 10 μl/cm^2, corrected for the surface area of the different nail fragments as described above. The applied solution was spread over the dorsal side of the nail, to mimic the intended clinical treatment and the ventral side of the nail rested on the agar surface. Each time the nails were contacted with the vehicle solutions, they were transferred to a new sterile Petri dish containing PBS agar to minimise any build-up of fungal growth on the agar. Nail fragments were contacted with the vehicle solutions daily for 7 days. Following such contact, each nail fragment was contacted with 10 μl of a spore suspension of T. interdigitale NCPF0335 which was prepared as described above. The spore suspension was applied to the ventral side of the nail (i.e. the side next to the skin in situ). […]

[3] = system: four clinical isolates of Trichophyton spp.; experiment: In vitro MIC testing of clinical isolates; type: cell-based
Excerpt: However, this difference in activity is not reflected in human nail tissue, which should be considered a more appropriate model for activity testing for antimicrobials of this type.

[4] = system: Trichophyton rubrum strain NCPF0118; experiment: Ex vivo human nail fragment model, treatment of established infection (cfu recovered); type: cell-based

For “7 to 200-mer (SEQ ID NO: 3) polyarginine [Novexatin® (NP213)]”, which “effect on survival of clinical isolates (dose dependence)” value ([1]; 0%, 5%, 10% (w/v) in 50% PEG 8000 + 20% urea) is on record?
Its value is “dose-dependent”.

What about the “effectiveness of treatment compared with T. rubrum NCPF0118” value ([1]; four clinical isolates) of the same substance?
Its value is “as effective as that observed when T. rubrum NCPF0118 was used”.

What about the “recoverable fungal growth after treatment” value (Candida) of the same substance?
The value was “no recoverable fungal growth”.

And the “fungal growth on pre-treated nail fragments” value ([2]; pre-treated daily for 7 days (1%, 5%, 10% w/v), after 24 hours from spore contact)?
The value was “no fungal growth”.

And the “fungal growth on pre-treated nail fragments” value ([2]; up to 14 days after contact with spore suspension)?
The value was “No fungal growth was observed”.

What about the “susceptibility of clinical isolates compared to T. rubrum NCPF0118” value [3] of the same substance?
Its value is “less susceptible”.

What about the “killing of T. rubrum NCPF0118” value ([4]; 10% (w/v) in 50% (w/v) PEG 8000 vehicle, 28 d of treatment) of the same substance?
The value was over 99.9%.

And the “fungal colonies isolated from nail fragments” value ([4]; Experiment 1, 10% (w/v), both presence and absence of urea, daily 28 days)?
The value was “no colonies were isolated”.

What about the “effect of treatment on fungal survival (dose dependence)” value ([4]; Experiment 2, 0%, 2.5%, 5%, 10% (w/v) in 50% PEG 8000 + 20% urea) of the same substance?
The value was “dose-dependent effect”.

What about the “reduction in fungal survival” value ([4]; Experiment 2, 2.5% and 5.0% (w/v), daily) of the same substance?
The value was “significant reductions in fungal survival”.

What about the “reduction in fungal survival” value ([4]; Experiment 2, 2.5%, 5.0% and 10.0% (w/v), alternate days) of the same substance?
Its value is “the reduction in fungal survival was significant”.

What about the “reduction of fungal survival relative to Experiment 1” value ([4]; Experiment 2, 5% (w/v), difference not statistically significant) of the same substance?
The value was “less effective in reducing fungal survival than observed in Experiment 1”.

What about the fungal colonies recovered ([4]; Experiment 2, 10% (w/v) applied daily, PEG 8000 + 20% urea) of the same substance?
Its fungal colonies recovered is “no fungal colonies were recovered”.

What about the “decrease in survival of the fungus compared to controls” value ([4]; Experiment 2, 10% (w/v) applied on alternate days) of the same substance?
Its value is about 3 log10.

And the fungal colonies recovered ([4]; Experiment 2, 10% (w/v) applied on alternate days, PEG 8000 + 20% urea)?
The fungal colonies recovered was “small numbers of colonies were recovered”.

What about the “visual examination of nail fragments” value ([4]; Experiment 2, after 28 d treatment, versus vehicle alone (FIG. 7)) of the same substance?
The value was “no visual evidence of fungal infection”.

What about the “effect of simulated washing on antifungal efficacy” value ([4]; Experiment 4, nail surface wiped with sterile water before application) of the same substance?
Its value is “did not affect the antifungal efficacy”.

What about the fungal colonies recovered ([4]; Experiment 4, washed or unwashed nail fragments, 28 days) of the same substance?
Its fungal colonies recovered is “No fungal colonies were recovered”.
